Measurements published in the supplement of paper PMC11061612.

Legend:
Test in all cases: combination Emax (second highest fraction inhibited in the dose matrix, 72 h); higher = more inhibition; extreme values may be limits of the assay
[1] = test system: MS-1 (Small Cell Lung Carcinoma)
How it was run: (§1)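 Bliss excess equals the observed combination effect minus the expected value EA + EB − EA·EB, where EA and EB are the effects of each agent alone. Combination Emax is the second-highest inhibition within the matrix. Inhibition was scaled from CellTiter-Glo 2.0 luminescence, with 0 set by vehicle wells and 1 by blank wells, after 72 hours of two-drug dosing of cells plated in 1536-well plates.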

[2] = test system: BxPC-3 (Pancreatic Carcinoma)
How it was run: as §1

[3] = test system: KP-4 (Pancreatic Carcinoma)
How it was run: as §1

NB1 (Neuroblastoma) = test system: NB1 (Neuroblastoma)
How it was run: as §1

[4] = test system: LCLC-103H (Non-Small Cell Lung Carcinoma)
How it was run: as §1

UACC-257 (Melanoma) = test system: UACC-257 (Melanoma)
How it was run: as §1

[5] = test system: SNU-423 (Hepatocellular Carcinoma)
How it was run: as §1

T47D (Breast Carcinoma) = test system: T47D (Breast Carcinoma)
How it was run: as §1

[6] = test system: PA-TU-8988T (Pancreatic Carcinoma)
How it was run: as §1

[7] = test system: SUP-M2 (T-Cell Non-Hodgkin's Lymphoma)
How it was run: as §1

[8] = test system: MDA-MB-415 (Breast Carcinoma)
How it was run: as §1

[9] = test system: IA-LM (Non-Small Cell Lung Carcinoma)
How it was run: as §1

[10] = test system: NCI-H596 (Other Solid Carcinomas)
How it was run: as §1

[11] = test system: PL4 (Pancreatic Carcinoma)
How it was run: as §1

[12] = test system: SKG-IIIa (Cervical Carcinoma)
How it was run: as §1

GAK (Melanoma) = test system: GAK (Melanoma)
How it was run: as §1

[13] = test system: SCC-4 (Oral Cavity Carcinoma)
How it was run: as §1

AM-38 (Glioblastoma) = test system: AM-38 (Glioblastoma)
How it was run: as §1

NCI-H226 (Mesothelioma) = test system: NCI-H226 (Mesothelioma)
How it was run: as §1

[14] = test system: NCI-H3118 (Head and Neck Carcinoma)
How it was run: as §1

SMILES	combination Emax [1]	combination Emax [2]	combination Emax [3]	combination Emax (NB1 (Neuroblastoma))	combination Emax [4]	combination Emax (UACC-257 (Melanoma))	combination Emax [5]	combination Emax (T47D (Breast Carcinoma))	combination Emax [6]	combination Emax [7]	combination Emax [8]	combination Emax [9]	combination Emax [10]	combination Emax [11]	combination Emax [12]	combination Emax (GAK (Melanoma))	combination Emax [13]	combination Emax (AM-38 (Glioblastoma))	combination Emax (NCI-H226 (Mesothelioma))	combination Emax [14]
CC(=O)c1c(C)c2cnc(Nc3ccc(N4CCNCC4)cn3)nc2n(C2CCCC2)c1=O [Palbociclib] + Cn1cnc2c(F)c(Nc3ccc(Br)cc3Cl)c(C(=O)NOCCO)cc21 [Selumetinib] (first compound max 10 µM, 7x7, partner max 10 µM)	0.416	0.414	0.509	0.376	0.248	0.647	0.241	0.265	0.514	0.88	0.254	0.281	0.306	0.523	0.188	0.697	0.377	0.568	0.232	0.603
Cc1cc2ncnn2cc1Nc1ncc2c(n1)n(C1CCOCC1)c(=O)n2C [AZD7648] + C=CCn1c(=O)c2cnc(Nc3ccc(N4CCN(C)CC4)cc3)nc2n1-c1cccc(C(C)(C)O)n1 [AZD1775] (first compound max 10 µM, partner max 1 µM)	0.827	0.428	0.59	0.847	0.552	0.226	0.497	0.468	0.749	0.991	0.488	0.42	0.357	0.379	0.43	0.713	0.466	0.343	0.297	0.897
NC1(C(=O)N[C@@H](CCO)c2ccc(Cl)cc2)CCN(c2ncnc3[nH]ccc23)CC1 [Capivasertib] + Cn1cnc2c(F)c(Nc3ccc(Br)cc3Cl)c(C(=O)NOCCO)cc21 [Selumetinib] (first compound max 10 µM, 7x7, partner max 10 µM)	0.267	0.426	0.483	0.776	0.389	0.731	0.491	0.42	0.689	0.507	0.85	0.374	0.575	0.726	0.435	0.757	0.778	0.675	0.316	0.657
Cc1c2c(nn1C)CSCc1cc(n(C)n1)CSc1cc(c3ccccc3c1)OCCCc1c(C(=O)O)n(C)c3c-2c(Cl)ccc13 [AZD5991] + C[C@@H]1COCCN1C2=NC(=NC(=C2)C3(CC3)[S@](=N)(=O)C)C4=C5C=CNC5=NC=C4 [AZD6738] (first compound max 1 µM, 7x7, partner max 10 µM)	0.826	0.518	0.501	0.931	0.531	0.252	0.471	0.44	0.345	1	0.554	0.389	0.318	0.761	0.333	0.593	0.755	0.771	0.193	0.601
COc1cccc2c1C(=O)c1c(O)c3c(c(O)c1C2=O)C[C@@](O)(C(=O)CO)C[C@@H]3O[C@H]1C[C@H](N)[C@H](O)[C@H](C)O1 [Doxorubicin] + Cc1cc2ncnn2cc1Nc1ncc2c(n1)n(C1CCOCC1)c(=O)n2C [AZD7648] (first compound max 1 µM, 7x7, partner max 10 µM)	0.905	0.455	0.76	0.89	0.85	0.431	0.713	0.64	0.791	1	0.568	0.463	0.295	0.535	0.512	0.803	0.303	0.826	0.802	0.758
Cc1c2c(nn1C)CSCc1cc(n(C)n1)CSc1cc(c3ccccc3c1)OCCCc1c(C(=O)O)n(C)c3c-2c(Cl)ccc13 [AZD5991] + C[C@@H](Nc1cc(F)cc(F)c1)c1cc(C(=O)N(C)C)cc2c(=O)cc(N3CCOCC3)oc12 [AZD8186] (first compound max 1 µM, 7x7, partner max 3 µM)	0.48	0.206	0.206	0.26	0.352	0.28	0.431	0.504	0.45	0.996	0.931	0.201	0.299	0.421	0.24	0.349	0.598	0.436	0.245	0.33
